Source: patent US20160158200A1, “Combinations of Hepatitis C Virus Inhibitors” (priority 2013, published 2016)

What follows are compounds tested on HCV genotype-1a variant with glutamine 30 changed to glutamate in the NS5A protein. Conditions: test compound titrated with BMS-790052 fixed at 200 nM; genotype 1a Q30E replicon.
Assay type: cell-based
Excerpt: The NS5A synergistic inhibitory effect of test compounds can be determined using various amounts of an NS5A-targeting compound with titration of a second compound of interest. […] In one embodiment, the HCV genotype strain can be genotype 1a containing a change at amino acid 30 of the NS5A protein consisting of glutamine to glutamate. The test compound can be chosen from compounds listed above or from others present in the literature.
With `CC1(C(=O)NC(c2nc(-c3ccc(-c4ccc(-c5c[nH]c(C(NC(=O)C6(C)CCCO6)C(C)(C)C)n5)cc4)cc3)c[nH]2)C(C)(C)C)CCCO1.O=C(O)C(F)(F)F.O=C(O)C(F)(F)F` (mixture of isomers) [Compound L-69] the “Fold-Synergistic 1a (Q30E)” value was >100 fold. With `CC(C)(C)C(NC(=O)CC1CCCO1)c1nc(-c2ccc(-c3ccc(-c4c[nH]c(C(NC(=O)CC5CCCO5)C(C)(C)C)n4)cc3)cc2)c[nH]1.O=C(O)C(F)(F)F.O=C(O)C(F)(F)F` (mixture of isomers) [Compound L-70] the “Fold-Synergistic 1a (Q30E)” value was >100 fold. For `CC(C)(C)C(NC(=O)CC1CCOC2(CC2)C1)c1nc(-c2ccc(-c3ccc(-c4c[nH]c(C(NC(=O)CC5CCOC6(CC6)C5)C(C)(C)C)n4)cc3)cc2)c[nH]1` (mixture of isomers) [Compound L-75], the “Fold-Synergistic 1a (Q30E)” value was >100 fold. With `Cn1cccc1C(O)C(C)(C)C(=O)N[C@H](c1nc(-c2ccc(-c3ccc(-c4c[nH]c([C@@H](NC(=O)C(C)(C)C(O)c5cccn5C)C(C)(C)C)n4)cc3)cc2)c[nH]1)C(C)(C)C` (mixture of isomers) [Compound N-129] the “Fold-Synergistic 1a (Q30E)” value was >100 fold. For `CC(CO)(CF)C(=O)NC(c1nc(-c2ccc(-c3ccc(-c4c[nH]c(C(NC(=O)C(C)(CO)CF)C(C)(C)C)n4)cc3)cc2)c[nH]1)C(C)(C)C` (mixture of isomers) [Compound N-138], the “Fold-Synergistic 1a (Q30E)” value was >100 fold. `CC(C)(C)C(NC(=O)C(C)(C)C(O)C1CC1)c1nc(-c2ccc(-c3ccc(-c4c[nH]c(C(NC(=O)C(C)(C)C(O)C5CC5)C(C)(C)C)n4)cc3)cc2)c[nH]1` (mixture of isomers) [Compound N-148] was tested, and the “Fold-Synergistic 1a (Q30E)” value was >100 fold. `CC(C)C(NC(=O)C(C)(C)C(O)C1CC1)c1nc(-c2ccc(-c3ccc(-c4c[nH]c(C(NC(=O)C(C)(C)C(O)C5CC5)C(C)C)n4)cc3)cc2)c[nH]1` (mixture of isomers) [Compound N-149] was tested, and the “Fold-Synergistic 1a (Q30E)” value was >100 fold. In the case of `CC1(C(NC(=O)C(C)(C)C(O)C2CC2)c2nc(-c3ccc(-c4ccc(-c5c[nH]c(C(NC(=O)C(C)(C)C(O)C6CC6)C6(C)CC6)n5)cc4)cc3)c[nH]2)CC1` (mixture of isomers) [Compound N-150], the “Fold-Synergistic 1a (Q30E)” value is reported as >100 fold. In the case of `CC1(C(NC(=O)C(C)(C)C(O)C2(C)CC2)c2nc(-c3ccc(-c4ccc(-c5c[nH]c(C(NC(=O)C(C)(C)C(O)C6(C)CC6)C6(C)CC6)n5)cc4)cc3)c[nH]2)CC1` (mixture of isomers) [Compound N-156], the “Fold-Synergistic 1a (Q30E)” value is reported as >100 fold. `CC1(C(NC(=O)C(C)(C)C(O)C2CC(F)(F)C2)c2nc(-c3ccc(-c4ccc(-c5c[nH]c(C(NC(=O)C(C)(C)C(O)C6CC(F)(F)C6)C6(C)CC6)n5)cc4)cc3)c[nH]2)CC1` (mixture of isomers) [Compound N-157] was tested, and the “Fold-Synergistic 1a (Q30E)” value was >100 fold. `COC1(C(=O)NC(c2nc(-c3ccc(-c4ccc(-c5c[nH]c(C(NC(=O)C6(OC)CCOC6)C(C)(C)C)n5)cc4)cc3)c[nH]2)C(C)(C)C)CCOC1` (mixture of isomers) [Compound N-158] was tested, and the “Fold-Synergistic 1a (Q30E)” value was >100 fold. In the case of `COC1(C(=O)NC(c2nc(-c3ccc(-c4ccc(-c5c[nH]c(C(NC(=O)C6(OC)CCOC6)C(C)C)n5)cc4)cc3)c[nH]2)C(C)C)CCOC1` (mixture of isomers) [Compound N-159], the “Fold-Synergistic 1a (Q30E)” value is reported as >100 fold. For `CC(C)(C)C(NC(=O)C(C)(C)C1CCCCO1)c1nc(-c2ccc(-c3ccc(-c4c[nH]c(C(NC(=O)C(C)(C)C5CCCCO5)C(C)(C)C)n4)cc3)cc2)c[nH]1` (mixture of isomers) [Compound P-153], the “Fold-Synergistic 1a (Q30E)” value was >100 fold. For `CC(C)(C)C(NC(=O)C(C)(C)C1CCC(F)(F)CO1)c1nc(-c2ccc(-c3ccc(-c4c[nH]c(C(NC(=O)C(C)(C)C5CCC(F)(F)CO5)C(C)(C)C)n4)cc3)cc2)c[nH]1` (mixture of isomers) [Compound P-155], the “Fold-Synergistic 1a (Q30E)” value was >100 fold. For `CC(C)(C)C(NC(=O)C1CC(=O)c2ccccc2C1)c1nc(-c2ccc(-c3ccc(-c4c[nH]c(C(NC(=O)C5CC(=O)c6ccccc6C5)C(C)(C)C)n4)cc3)cc2)c[nH]1` (mixture of isomers) [Compound S-256], the “Fold-Synergistic 1a (Q30E)” value was >100 fold. `CC(C)(C)C(NC(=O)C1CC(=O)c2ccccc21)c1nc(-c2ccc(-c3ccc(-c4c[nH]c(C(NC(=O)C5CC(=O)c6ccccc65)C(C)(C)C)n4)cc3)cc2)c[nH]1` (mixture of isomers) [Compound S-257] was tested, and the “Fold-Synergistic 1a (Q30E)” value was >10 fold. With `Cc1ccccc1C(C(=O)NC(c1nc(-c2ccc(-c3ccc(-c4c[nH]c(C(NC(=O)C(c5ccccc5C)C(C)C)C(C)(C)C)n4)cc3)cc2)c[nH]1)C(C)(C)C)C(C)C` (mixture of isomers) [Compound S-258] the “Fold-Synergistic 1a (Q30E)” value was >100 fold. In the case of `COc1ccccc1C1OC(=O)CC1C(=O)NC(c1nc(-c2ccc(-c3ccc(-c4c[nH]c(C(NC(=O)C5CC(=O)OC5c5ccccc5OC)C(C)(C)C)n4)cc3)cc2)c[nH]1)C(C)(C)C` (mixture of isomers) [Compound S-263], the “Fold-Synergistic 1a (Q30E)” value is reported as >10 fold. In the case of `CC(C)(C)C(NC(=O)C1CC(=O)N(c2ccccc2O)C1)c1nc(-c2ccc(-c3ccc(-c4c[nH]c(C(NC(=O)C5CC(=O)N(c6ccccc6O)C5)C(C)(C)C)n4)cc3)cc2)c[nH]1` (mixture of isomers) [Compound S-265], the “Fold-Synergistic 1a (Q30E)” value is reported as >100 fold. With `CC(C)(C)OC(=O)NC1CCCC(C(=O)NC(c2nc(-c3ccc(-c4ccc(-c5c[nH]c(C(NC(=O)C6CCCC(NC(=O)OC(C)(C)C)C6)C(C)(C)C)n5)cc4)cc3)c[nH]2)C(C)(C)C)C1` (mixture of isomers) [Compound S-266] the “Fold-Synergistic 1a (Q30E)” value was >100 fold. For `CC(C)(C)C(NC(=O)C1CCCCC1c1ccccc1)c1nc(-c2ccc(-c3ccc(-c4c[nH]c(C(NC(=O)C5CCCCC5c5ccccc5)C(C)(C)C)n4)cc3)cc2)c[nH]1` (mixture of isomers) [Compound S-269], the “Fold-Synergistic 1a (Q30E)” value was >100 fold. With `CC(C)(C)C(NC(=O)C1C(c2ccccc2)C1c1ccccc1)c1nc(-c2ccc(-c3ccc(-c4c[nH]c(C(NC(=O)C5C(c6ccccc6)C5c5ccccc5)C(C)(C)C)n4)cc3)cc2)c[nH]1` (mixture of isomers) [Compound S-271] the “Fold-Synergistic 1a (Q30E)” value was >100 fold. For `COC(=O)NC1CCCCC1C(=O)NC(c1nc(-c2ccc(-c3ccc(-c4c[nH]c(C(NC(=O)C5CCCCC5NC(=O)OC)C(C)(C)C)n4)cc3)cc2)c[nH]1)C(C)(C)C` (mixture of isomers) [Compound S-275], the “Fold-Synergistic 1a (Q30E)” value was >100 fold. In the case of `CC1(C(=O)N[C@H](c2nc(-c3ccc(-c4ccc(-c5c[nH]c([C@@H](NC(=O)C6(C)CC(F)(F)CN6)C(C)(C)C)n5)cc4)cc3)c[nH]2)C(C)(C)C)CC(F)(F)CN1` (mixture of isomers) [Compound W-80], the “Fold-Synergistic 1a (Q30E)” value is reported as >100 fold. In the case of `CC1(C)CCCC(C)(C(=O)NC(c2nc(-c3ccc(-c4ccc(-c5c[nH]c(C(NC(=O)C6(C)CCCC(C)(C)O6)C(C)(C)C)n5)cc4)cc3)c[nH]2)C(C)(C)C)O1` (mixture of isomers) [Compound W-163], the “Fold-Synergistic 1a (Q30E)” value is reported as >100 fold. For `CC(C)(C)C(NC(=O)C1(NC(=O)C2CC2(F)F)CCCCC1)c1nc(-c2ccc(-c3ccc(-c4c[nH]c(C(NC(=O)C5(NC(=O)C6CC6(F)F)CCCCC5)C(C)(C)C)n4)cc3)cc2)c[nH]1` (mixture of isomers) [Compound W-277], the “Fold-Synergistic 1a (Q30E)” value was >100 fold. In the case of `CC(C)(C)C(NC(=O)C1CC12CCC(F)(F)CC2)c1nc(-c2ccc(-c3ccc(-c4c[nH]c(C(NC(=O)C5CC56CCC(F)(F)CC6)C(C)(C)C)n4)cc3)cc2)c[nH]1` (mixture of isomers) [Compound Y-70], the “Fold-Synergistic 1a (Q30E)” value is reported as >100 fold. For `CC1(C(=O)NC(c2nc(-c3ccc(-c4ccc(-c5c[nH]c(C(NC(=O)C6(C)CCCCC6=O)C(C)(C)C)n5)cc4)cc3)c[nH]2)C(C)(C)C)CCCCC1=O` (mixture of isomers) [Compound Y-98], the “Fold-Synergistic 1a (Q30E)” value was >100 fold. For `CC1(C(=O)NC(c2nc(-c3ccc(-c4ccc(-c5c[nH]c(C(NC(=O)C6(C)CCCOC6)C(C)(C)C)n5)cc4)cc3)c[nH]2)C(C)(C)C)CCCOC1` (mixture of isomers) [Compound Y-100], the “Fold-Synergistic 1a (Q30E)” value was >100 fold. `CC(C)(C)C(NC(=O)C1(CO)CCCOC1)c1nc(-c2ccc(-c3ccc(-c4c[nH]c(C(NC(=O)C5(CO)CCCOC5)C(C)(C)C)n4)cc3)cc2)c[nH]1` (mixture of isomers) [Compound Y-101] was tested, and the “Fold-Synergistic 1a (Q30E)” value was >100 fold. With `CC(C)(C)C(NC(=O)C1(O)CCCOC1)c1nc(-c2ccc(-c3ccc(-c4c[nH]c(C(NC(=O)C5(O)CCCOC5)C(C)(C)C)n4)cc3)cc2)c[nH]1` (mixture of isomers) [Compound Y-102] the “Fold-Synergistic 1a (Q30E)” value was >100 fold. For `CC(C)(C)[C@H](NC(=O)C1CC12CCOCC2)c1ncc(-c2ccc(-c3ccc(-c4cnc([C@@H](NC(=O)C5CC56CCOCC6)C(C)(C)C)[nH]4)cc3)cc2)[nH]1` (single isomer, unassigned) [Compound B70], the “Fold-Synergistic 1a (Q30E)” value was >100 fold. In the case of `CC(C)(C)[C@H](NC(=O)C1CC12CCOCC2)c1ncc(-c2ccc(-c3ccc(-c4cnc([C@@H](NC(=O)C5CC56CCOCC6)C(C)(C)C)[nH]4)cc3)cc2)[nH]1` (single isomer, unassigned) [Compound B71], the “Fold-Synergistic 1a (Q30E)” value is reported as >100 fold. For `CC(C)(C)[C@H](NC(=O)C1CC12CCOCC2)c1ncc(-c2ccc(-c3ccc(-c4cnc([C@@H](NC(=O)C5CC56CCOCC6)C(C)(C)C)[nH]4)cc3)cc2)[nH]1` (single isomer, unassigned) [Compound B72], the “Fold-Synergistic 1a (Q30E)” value was >100 fold. In the case of `CC(O)C1(C(=O)N[C@H](c2ncc(-c3ccc(-c4ccc(-c5cnc([C@@H](NC(=O)C6(C(C)O)CC6)C(C)(C)C)[nH]5)cc4)cc3)[nH]2)C(C)(C)C)CC1` (single isomer, unassigned) [Compound B73], the “Fold-Synergistic 1a (Q30E)” value is reported as >100 fold. `CC(O)C1(C(=O)N[C@H](c2ncc(-c3ccc(-c4ccc(-c5cnc([C@@H](NC(=O)C6(C(C)O)CC6)C(C)(C)C)[nH]5)cc4)cc3)[nH]2)C(C)(C)C)CC1` (single isomer, unassigned) [Compound B74] was tested, and the “Fold-Synergistic 1a (Q30E)” value was >100 fold.
